In PMC9077246, “Novel spirocyclic tranylcypromine derivatives as lysine-specific demethylase 1 (LSD1) inhibitors” (RSC Advances, 2018):
Counter-ions that a name gives are not always drawn.

Assays:
Assay in all cases: biochemical
[1] = target: Recombinant human LSD1 (172–852 aa) (Homo sapiens, UniProt O60341)
Procedure: LSD1 or LSD2 enzyme inhibition assay was performed with Lance Ultra LSD1 Histone H3-Lysine 4 Demethylase Assay kit (Perkin Elmer) according to the manufacturer's protocol. […] The test was carried out in triplicate. And the IC50 data was calculated using the software GraphPad Prism 5, and chosen the equation “sigmoidal dose–response (variable slope)” for curve fitting.

MAO-B = target: T1, MAO-B (Homo sapiens, UniProt P27338); details: MAO-B, IC50, Table 1; mean ± SEM, eight-point experiments, three independent experiments
T1 sequence (P27338 1-520): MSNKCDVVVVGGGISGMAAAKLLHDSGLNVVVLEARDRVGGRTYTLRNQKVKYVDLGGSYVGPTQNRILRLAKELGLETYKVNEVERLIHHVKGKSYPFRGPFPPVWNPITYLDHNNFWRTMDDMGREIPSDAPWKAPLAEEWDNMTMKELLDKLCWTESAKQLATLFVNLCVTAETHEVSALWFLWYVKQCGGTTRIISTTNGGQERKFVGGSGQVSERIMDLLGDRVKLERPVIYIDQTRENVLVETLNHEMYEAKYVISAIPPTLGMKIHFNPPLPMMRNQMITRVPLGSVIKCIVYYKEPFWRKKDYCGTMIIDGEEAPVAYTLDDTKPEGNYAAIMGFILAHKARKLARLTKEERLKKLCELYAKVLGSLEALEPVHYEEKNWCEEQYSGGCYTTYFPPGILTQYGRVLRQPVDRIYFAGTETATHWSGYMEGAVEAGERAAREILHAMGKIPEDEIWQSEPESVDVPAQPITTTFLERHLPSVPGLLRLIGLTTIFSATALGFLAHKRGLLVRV
Procedure: (§1) MAO-A and MAO-B enzymes were purchased from Sigma-Aldrich and the inhibition assay was tested with Promega MAO-Glo™ Assay kit according to the manufacturer's protocol. The luminescent signals were detected using Envision (PerkinElmer). The test was carried out in triplicate. And the IC50 data was calculated using the software GraphPad Prism 5, and chosen the equation “sigmoidal dose–response (variable slope)” for curve fitting.

MAO-A = target: T2, MAO-A (Homo sapiens, UniProt P21397); details: MAO-A, IC50, Table 1; mean ± SEM, eight-point experiments, three independent experiments
T2 sequence (P21397 1-527): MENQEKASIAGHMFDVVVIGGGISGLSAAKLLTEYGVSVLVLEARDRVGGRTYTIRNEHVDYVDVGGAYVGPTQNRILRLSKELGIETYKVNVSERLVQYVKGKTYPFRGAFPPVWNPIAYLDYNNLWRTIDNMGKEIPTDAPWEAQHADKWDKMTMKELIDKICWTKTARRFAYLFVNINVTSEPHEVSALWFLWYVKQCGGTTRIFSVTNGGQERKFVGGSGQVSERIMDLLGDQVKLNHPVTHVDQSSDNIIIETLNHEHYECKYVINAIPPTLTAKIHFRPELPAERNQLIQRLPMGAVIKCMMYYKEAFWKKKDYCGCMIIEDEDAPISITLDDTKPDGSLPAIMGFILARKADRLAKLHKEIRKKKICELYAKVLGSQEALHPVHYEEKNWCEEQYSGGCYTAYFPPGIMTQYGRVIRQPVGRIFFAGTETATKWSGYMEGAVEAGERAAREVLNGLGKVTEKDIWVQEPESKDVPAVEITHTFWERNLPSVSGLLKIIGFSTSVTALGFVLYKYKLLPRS
Procedure: as §1

Row | Compound | IC50 [1] | IC50 (MAO-B) | IC50 (MAO-A)
1 | c1ccc(CN[C@@H]2CC23CCc2ccccc23)cc1 (mixture of isomers) [Compound 13a, (2R)-N-Benzyl-2′,3′-dihydrospiro[cyclopropane-1,1′-inden]-2-amine] | 3.3 ± 0.6 µM |  | 
2 | Fc1ccccc1CN[C@@H]1CC12CCc1ccccc12 (mixture of isomers) [Compound 15a, (2R)-N-(2-Fluorobenzyl)-2′,3′-dihydrospiro[cyclopropane-1,1′-inden]-2-amine] |  | 9.8 ± 2.3 µM | 4.8 ± 0.5 µM
3 | COc1ccccc1CN[C@@H]1CC12CCc1ccccc12 (stereo in doubt) [Compound 14a, (2R)-N-(2-Methoxybenzyl)-2′,3′-dihydrospiro[cyclopropane-1,1′-inden]-2-amine] |  | 12 ± 1 µM | 5.9 ± 1.1 µM
4 | COc1ccccc1CN[C@H]1CC12CCc1ccccc12 (stereo in doubt) [Compound 14b, (2S)-N-(2-Methoxybenzyl)-2′,3′-dihydrospiro[cyclopropane-1,1′-inden]-2-amine] |  | 70 ± 35 µM | 1.7 ± 0.3 µM
5 | Fc1ccccc1CN[C@H]1CC12CCc1ccccc12 (stereo in doubt) [Compound 15b, (2S)-N-(2-Fluorobenzyl)-2′,3′-dihydrospiro[cyclopropane-1,1′-inden]-2-amine] |  | 32 ± 3 µM | 2.5 ± 0.1 µM
6 | COc1ccc(Br)cc1CN[C@@H]1CC12CCc1ccccc12 (stereo in doubt) [Compound 16a, (2R)-N-(5-Bromo-2-methoxybenzyl)-2′,3′-dihydrospiro[cyclopropane-1,1′-inden]-2-amine] |  | 1.2 ± 0.2 µM | 3.7 ± 0.8 µM
7 | COc1ccc(Br)cc1CN[C@H]1CC12CCc1ccccc12 (stereo in doubt) [Compound 16b, (2S)-N-(5-Bromo-2-methoxybenzyl)-2′,3′-dihydrospiro[cyclopropane-1,1′-inden]-2-amine] |  | 7.7 ± 3.8 µM | 0.39 ± 0.19 µM
8 | COc1ccc(CN[C@@H]2CC23CCc2ccccc23)c(Cl)c1OC (stereo in doubt) [Compound 20a, (2R)-N-(2-Chloro-3,4-dimethoxybenzyl)-2′,3′-dihydrospiro[cyclopropane-1,1′-inden]-2-amine] |  | 20 ± 1 µM | 1.4 ± 0.1 µM
9 | COc1ccc(CN[C@H]2CC23CCc2ccccc23)c(Cl)c1OC (stereo in doubt) [Compound 20b, (2S)-N-(2-Chloro-3,4-dimethoxybenzyl)-2′,3′-dihydrospiro[cyclopropane-1,1′-inden]-2-amine] |  | 7 ± 0.7 µM | 5 ± 1.8 µM
10 | O=C(CN[C@@H]1CC12CCc1ccccc12)N1CCOCC1 (stereo in doubt) [Compound 25a, 2-(((2R)-2′,3′-Dihydrospiro[cyclopropane-1,1′-inden]-2-yl)amino)-1-morpholinoethan-1-one hydrochloride] | 1.4 ± 0.1 µM |  | 
11 | O=C(CN[C@H]1CC12CCc1ccccc12)N1CCOCC1 (stereo in doubt) [Compound 25b, 2-(((2S)-2′,3′-Dihydrospiro[cyclopropane-1,1′-inden]-2-yl)amino)-1-morpholinoethan-1-one hydrochloride] | 22 ± 4 µM |  | 
12 | N[C@H]1CC12CCc1cc(-c3ccccc3)ccc12 (stereo in doubt) [Compound 28b, (2S)-5′-Phenyl-2′,3′-dihydrospiro[cyclopropane-1,1′-inden]-2-amine hydrochloride] | 2.7 ± 0.2 µM |  | 
13 | NC1CCC(N[C@@H]2C[C@H]2c2ccccc2)CC1 (stereo partly drawn) [Compound 6, N1-[(1R, 2S)-2-phenylcyclopropyl]cyclohexane-1,4-diamine dihydrochloride, reference compound] |  |  | > 100 µM
14 | COc1ccc(CNC2CC23CCc2ccccc23)cc1OC [Compound 19a, (2R)-N-(3,4-Fimethoxybenzyl)-2′,3′-dihydrospiro[cyclopropane-1,1′-inden]-2-amine] |  | 15 ± 2 µM | 11.7 ± 2.4 µM
15 | COc1ccc(CNC2CC23CCc2ccccc23)cc1OC [Compound 19b, (2S)-N-(3,4-Fimethoxybenzyl)-2′,3′-dihydrospiro[cyclopropane-1,1′-inden]-2-amine] |  | 27 ± 4 µM | 3.1 ± 0.2 µM
